Consider twelve compounds from ChEMBL document CHEMBL4619795, “Establishing the Structure-Activity Relationship of Daptomycin” (ACS Med Chem Lett, 2020).

The MIC is the lowest concentration that inhibits growth of the organism.

Some results are limits rather than exact numbers.

Holding throughout (type): functional
Assay [1] relates to Staphylococcus aureus. The experiment in a line: Antibacterial activity against methicillin-resistant Staphylococcus aureus 11 assessed as bacterial growth inhibition in presence of 50 ug/ml calcium ions by CLSI protocol based broth microdilution method. Background: In broth dilution the organism is exposed to a series of concentrations in liquid medium.
The test system of assay [2] is Staphylococcus aureus. The experiment in a line: Antibacterial activity against methicillin-resistant Staphylococcus aureus 14 assessed as bacterial growth inhibition in presence of 50 ug/ml calcium ions by CLSI protocol based broth microdilution method.
In assay [3] the test system is Staphylococcus aureus. The experiment in a line: Antibacterial activity against methicillin-resistant Staphylococcus aureus 86 assessed as bacterial growth inhibition in presence of 50 ug/ml calcium ions by CLSI protocol based broth microdilution method.
The subject of assay [4] is Staphylococcus aureus. The experiment in a line: Antibacterial activity against methicillin-resistant Staphylococcus aureus 88 assessed as bacterial growth inhibition in presence of 50 ug/ml calcium ions by CLSI protocol based broth microdilution method.
Assay [5] relates to Staphylococcus aureus. The experiment in a line: Antibacterial activity against Staphylococcus aureus ATCC 29213 assessed as bacterial growth inhibition in presence of 50 ug/ml calcium ions by CLSI protocol based broth microdilution method.
For assay [6], the system named is Enterococcus faecalis. The experiment in a line: Antibacterial activity against Streptococcus faecalis assessed as bacterial growth inhibition in presence of 50 ug/ml calcium ions by CLSI protocol based broth microdilution method.
The test system of assay [7] is Enterococcus. The experiment in a line: Antibacterial activity against Enterococcus 6 assessed as bacterial growth inhibition in presence of 50 ug/ml calcium ions by CLSI protocol based broth microdilution method.
Assay [8] has as its system Enterococcus. The experiment in a line: Antibacterial activity against Enterococcus 60 assessed as bacterial growth inhibition in presence of 50 ug/ml calcium ions by CLSI protocol based broth microdilution method.
Assay [9] has as its system Enterococcus faecalis. The experiment in a line: Antibacterial activity against Enterococcus faecalis ATCC 29212 assessed as bacterial growth inhibition in presence of 50 ug/ml calcium ions by CLSI protocol based broth microdilution method.

For the compound `CCCCCCCCCC(=O)N[C@@H](Cc1c[nH]c2ccccc12)C(=O)N[C@@H](CC(N)=O)C(=O)N[C@@H](CC(=O)O)C(=O)N[C@@H]1C(=O)NCC(=O)N[C@@H](CCCN)C(=O)N[C@@H](CC(=O)O)C(=O)N[C@H](C)C(=O)N[C@H](CC(=O)O)C(=O)NCC(=O)N[C@H](CO)C(=O)N[C@@H]([C@@H](C)CC(=O)O)C(=O)N[C@@H](CC(=O)c2ccccc2N)C(=O)O[C@@H]1C`, the MIC in assay [1] is at least 32 µg/mL; in [2], at least 32 µg/mL; in [3], 16 µg/mL; in assay [4], 16 µg/mL; in assay [5] it was 16 µg/mL; in [6], at least 32 µg/mL. For the same compound, the MIC in assay [7], in [8] and in assay [9] was at least 32 µg/mL in each case.
Take `C[C@H]1NC(=O)[C@H](CC(=O)O)NC(=O)[C@H](CCCN)NC(=O)CNC(=O)[C@@H](NC(=O)[C@H](CC(=O)O)NC(=O)[C@H](CC(N)=O)NC(=O)[C@H](Cc2c[nH]c3ccccc23)NC(=O)c2ccc(C#Cc3ccccc3)cc2)[C@@H](C)OC(=O)[C@H](CC(=O)c2ccccc2N)NC(=O)[C@H]([C@@H](C)CC(=O)O)NC(=O)[C@@H](CO)NC(=O)CNC(=O)[C@H](CC(=O)O)NC1=O`: the MIC in assay [1] was determined as 0.25 µg/mL; in assay [2], 0.5 µg/mL; in [3] it was 0.5 µg/mL; in assay [4], 0.5 µg/mL; in assay [5], 0.5 µg/mL; in assay [6], 1 µg/mL. Moreover, the MIC stood at 8 µg/mL in assay [7], 2 µg/mL in assay [8] and 8 µg/mL in assay [9].
In the case of `C[C@H]1NC(=O)[C@H](CC(=O)O)NC(=O)[C@H](CCCN)NC(=O)CNC(=O)[C@@H](NC(=O)[C@H](CC(=O)O)NC(=O)[C@H](CC(N)=O)NC(=O)[C@H](Cc2c[nH]c3ccccc23)NC(=O)c2ccc(C#CC#Cc3ccccc3)cc2)[C@@H](C)OC(=O)[C@H](CC(=O)c2ccccc2N)NC(=O)[C@H]([C@@H](C)CC(=O)O)NC(=O)[C@@H](CO)NC(=O)CNC(=O)[C@H](CC(=O)O)NC1=O`, the MIC came to 1 µg/mL in assay [1]; 0.5 µg/mL in assay [2]; 0.5 µg/mL in assay [3]; 0.5 µg/mL in assay [4]; 0.5 µg/mL in assay [5]; 1 µg/mL in assay [6]. Further, the values for the MIC in [7], in assay [8] and in [9] were 4 µg/mL, 1 µg/mL and 1 µg/mL, respectively.
Consider `CCCCCCCCCC(=O)N[C@@H](Cc1c[nH]c2ccccc12)C(=O)N[C@@H](CC(N)=O)C(=O)N[C@@H](CC(=O)O)C(=O)N[C@@H]1C(=O)NCC(=O)N[C@@H](CCCN)C(=O)N[C@@H](CCC(=O)O)C(=O)N[C@H](C)C(=O)N[C@@H](CCC(=O)O)C(=O)NCC(=O)N[C@H](CO)C(=O)N[C@@H]([C@@H](C)CC(=O)O)C(=O)N[C@@H](CC(=O)c2ccccc2N)C(=O)O[C@@H]1C`, for which the MIC in assay [1], in assay [2], in assay [3], in assay [4], in assay [5] and in [6] was at least 32 µg/mL in each case. In addition, the MIC in [7], in [8] and in assay [9] was at least 32 µg/mL throughout.
Regarding `CCCCCCCCCC(=O)N[C@@H](Cc1c[nH]c2ccccc12)C(=O)N[C@@H](CC(N)=O)C(=O)N[C@@H](CC(=O)O)C(=O)N[C@@H]1C(=O)NCC(=O)N[C@@H](CCCCN)C(=O)N[C@@H](CC(=O)O)C(=O)N[C@H](C)C(=O)N[C@@H](CC(=O)O)C(=O)NCC(=O)N[C@H](CO)C(=O)N[C@@H]([C@@H](C)CC(=O)O)C(=O)N[C@@H](CC(=O)c2ccccc2N)C(=O)O[C@@H]1C`, the MIC in assay [1] is 16 µg/mL; in [2] it was at least 32 µg/mL; in assay [3], 1 µg/mL; in assay [4], 1 µg/mL; in assay [5], 1 µg/mL; in assay [6], 8 µg/mL. Besides, the MIC in [7] is at least 32 µg/mL; in assay [8], 16 µg/mL; in assay [9], at least 32 µg/mL.
Regarding `CCCCCCCCCC(=O)N[C@@H](Cc1c[nH]c2ccccc12)C(=O)N[C@@H](CC(N)=O)C(=O)N[C@@H](CC(=O)O)C(=O)N[C@@H]1C(=O)NCC(=O)N[C@@H](CCCN)C(=O)N[C@@H](CC(=O)O)C(=O)N[C@H](C)C(=O)N[C@@H](CC(=O)O)C(=O)N(C)CC(=O)N[C@H](CO)C(=O)N[C@@H]([C@@H](C)CC(=O)O)C(=O)N[C@@H](CC(=O)c2ccccc2N)C(=O)O[C@@H]1C`, the minimum inhibitory concentration (MIC) in assay [1], in [2], in assay [3], in [4], in [5] and in [6] was at least 32 µg/mL in each case. For the same compound, the MIC in assay [7], in [8] and in assay [9] was at least 32 µg/mL throughout.
Regarding `CCCCCCCCCC(=O)N[C@@H](Cc1c[nH]c2ccccc12)C(=O)N[C@@H](CC(N)=O)C(=O)N[C@@H](CC(=O)O)C(=O)N[C@@H]1C(=O)NCC(=O)N[C@@H](CC(C)C)C(=O)N[C@@H](CC(=O)O)C(=O)N[C@H](C)C(=O)N[C@@H](CC(=O)O)C(=O)NCC(=O)N[C@H](CO)C(=O)N[C@@H]([C@@H](C)CC(=O)O)C(=O)N[C@@H](CC(=O)c2ccccc2N)C(=O)O[C@@H]1C`, the MIC in assay [1] is 1 µg/mL; in [2], 0.5 µg/mL; in assay [3] it was 4 µg/mL; in assay [4], 2 µg/mL; in assay [5], 4 µg/mL; in assay [6], at least 32 µg/mL. Moreover, the results for the MIC in assay [7], in assay [8] and in assay [9] were at least 32 µg/mL, 16 µg/mL and at least 32 µg/mL, respectively.
For the compound `CCCCCCCCCC(=O)N[C@@H](Cc1c[nH]c2ccccc12)C(=O)N[C@@H](CC(N)=O)C(=O)N[C@@H](CC(=O)O)C(=O)N[C@@H]1C(=O)NCC(=O)N[C@@H](CCCN)C(=O)N[C@@H](CC(=O)O)C(=O)N[C@@H](C)C(=O)N[C@@H](CC(=O)O)C(=O)NCC(=O)N[C@H](CO)C(=O)N[C@@H]([C@@H](C)CC(=O)O)C(=O)N[C@@H](CC(=O)c2ccccc2N)C(=O)O[C@@H]1C`, the MIC in assay [1], in assay [2], in assay [3], in assay [4], in assay [5] and in assay [6] was at least 64 µg/mL each time. Further, the MIC in assay [7], in [8] and in [9] was at least 64 µg/mL in each case.
For the compound `CCCCCCCCCC(=O)N[C@@H](Cc1c[nH]c2ccccc12)C(=O)N[C@@H](CC(N)=O)C(=O)N[C@@H](CC(=O)O)C(=O)N[C@@H]1C(=O)NCC(=O)N[C@@H]([C@@H](C)O)C(=O)N[C@@H](CC(=O)O)C(=O)N[C@H](C)C(=O)N[C@@H](CC(=O)O)C(=O)NCC(=O)N[C@H](CO)C(=O)N[C@@H]([C@@H](C)CC(=O)O)C(=O)N[C@@H](CC(=O)c2ccccc2N)C(=O)O[C@@H]1C`, the MIC in assay [1] was 16 µg/mL; in assay [2], 16 µg/mL; in assay [3] it was 2 µg/mL; in [4] it was 2 µg/mL; in [5] it was 2 µg/mL; in assay [6] it was at least 32 µg/mL. Also, the MIC in assay [7], in assay [8] and in [9] was at least 32 µg/mL each time.
Take `CCCCCCCCCC(=O)N[C@@H](Cc1c[nH]c2ccccc12)C(=O)N[C@@H](C)C(=O)N[C@@H](CC(=O)O)C(=O)N[C@@H]1C(=O)NCC(=O)N[C@@H](CCCN)C(=O)N[C@@H](CC(=O)O)C(=O)N[C@H](C)C(=O)N[C@@H](CC(=O)O)C(=O)NCC(=O)N[C@H](CO)C(=O)N[C@@H]([C@@H](C)CC(=O)O)C(=O)N[C@@H](CC(=O)c2ccccc2N)C(=O)O[C@@H]1C`: the MIC is at least 32 µg/mL in assay [1]; at least 32 µg/mL in assay [2]; at least 32 µg/mL in assay [3]; 16 µg/mL in assay [4]; at least 32 µg/mL in assay [5]; 16 µg/mL in [6]. For the same compound, the MIC was 64 µg/mL in [7], 32 µg/mL in assay [8] and 64 µg/mL in assay [9].
Turning to `CCCCCCCCCC(=O)N[C@@H](Cc1c[nH]c2ccccc12)C(=O)N[C@@H](CC(N)=O)C(=O)N[C@@H](CC(=O)O)C(=O)N[C@@H]1C(=O)NCC(=O)N[C@@H](Cc2ccc(O)cc2)C(=O)N[C@@H](CC(=O)O)C(=O)N[C@H](C)C(=O)N[C@@H](CC(=O)O)C(=O)NCC(=O)N[C@H](CO)C(=O)N[C@@H]([C@@H](C)CC(=O)O)C(=O)N[C@@H](CC(=O)c2ccccc2N)C(=O)O[C@@H]1C`, the MIC in assay [1] is 1 µg/mL; in assay [2], 0.5 µg/mL; in [3], 4 µg/mL; in assay [4], 4 µg/mL; in assay [5], 1 µg/mL; in assay [6], at least 32 µg/mL. The MIC in assay [7] was at least 32 µg/mL; in [8], 16 µg/mL; in assay [9] it was at least 32 µg/mL.
With `CCCCCCCCCC(=O)N[C@@H](Cc1ccc2ccccc2c1)C(=O)N[C@@H](CC(N)=O)C(=O)N[C@@H](CC(=O)O)C(=O)N[C@@H]1C(=O)NCC(=O)N[C@@H](CCCN)C(=O)N[C@@H](CC(=O)O)C(=O)N[C@H](C)C(=O)N[C@@H](CC(=O)O)C(=O)NCC(=O)N[C@H](CO)C(=O)N[C@@H]([C@@H](C)CC(=O)O)C(=O)N[C@@H](CC(=O)c2ccccc2N)C(=O)O[C@@H]1C`, the MIC in assay [1] was found to be 0.5 µg/mL; in assay [2], 0.125 µg/mL; in assay [3], 0.06 µg/mL; in assay [4], 0.125 µg/mL; in [5], 0.25 µg/mL; in [6] it was 0.25 µg/mL. Also, the figures for the MIC in assay [7], in assay [8] and in assay [9] were 4 µg/mL, 0.5 µg/mL and 1 µg/mL, respectively.
